From ChEMBL document CHEMBL1157646, “Melanogenesis inhibitors from the desert plant Anastatica hierochuntica in B16 melanoma cells” (Bioorg Med Chem, 2010)
Calls of active or inactive are those of the source. The rule behind the calls is not given here.

What was measured:
cells [1] = settings: Mus musculus, B16-4A5, 72 h, read-out: INH
Description: Inhibition of theophylline-stimulated melanogenesis in mouse B16-4A5 cells at 10 uM after 72 hrs

[2] = Toxicity in mouse B16-4A5 cells assessed as inhibition of cell proliferation at 30 uM in presence of 1 mM theophylline after 72 hrs by WST8 dye reduction assay; assay type: cell-based
cells [3] = settings: Mus musculus, B16-4A5, 72 h, read-out: INH; remark: listed apart in the source
Description: Inhibition of theophylline-stimulated melanogenesis in mouse B16-4A5 cells at 1 uM after 72 hrs

cells [4] = settings: Mus musculus, B16-4A5, 72 h, read-out: INH; remark: listed apart in the source
Description: Inhibition of theophylline-stimulated melanogenesis in mouse B16-4A5 cells at 3 uM after 72 hrs

cells [5] = settings: Mus musculus, B16-4A5, 72 h, read-out: INH; remark: listed apart in the source
Description: Inhibition of theophylline-stimulated melanogenesis in mouse B16-4A5 cells at 30 uM after 72 hrs

[6] = target: T1, Tyrosinase (Agaricus bisporus) (UniProt O42713); test: Inhibition of mushroom tyrosinase assessed as inhibition of melanin production from dopachrome by autoxidation at 100 uM
T1 sequence (whole entry): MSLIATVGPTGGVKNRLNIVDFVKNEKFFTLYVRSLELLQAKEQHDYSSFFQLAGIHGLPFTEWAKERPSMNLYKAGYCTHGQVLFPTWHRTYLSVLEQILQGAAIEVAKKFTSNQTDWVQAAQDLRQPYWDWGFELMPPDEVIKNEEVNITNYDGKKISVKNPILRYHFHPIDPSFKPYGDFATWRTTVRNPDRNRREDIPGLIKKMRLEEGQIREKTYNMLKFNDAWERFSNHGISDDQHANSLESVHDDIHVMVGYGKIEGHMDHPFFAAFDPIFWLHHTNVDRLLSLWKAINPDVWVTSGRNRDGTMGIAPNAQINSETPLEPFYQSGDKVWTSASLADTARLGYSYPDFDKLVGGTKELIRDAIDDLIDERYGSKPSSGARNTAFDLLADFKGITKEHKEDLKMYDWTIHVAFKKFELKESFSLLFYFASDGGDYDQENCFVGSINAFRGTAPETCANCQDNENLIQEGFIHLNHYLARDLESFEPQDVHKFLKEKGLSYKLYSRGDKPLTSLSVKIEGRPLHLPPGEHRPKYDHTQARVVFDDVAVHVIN

[7] = target: T1, Tyrosinase (Agaricus bisporus); test: Inhibition of mushroom tyrosinase at 1 uM
[8] = target: T1, Tyrosinase (Agaricus bisporus); test: Inhibition of mushroom tyrosinase at 3 uM
[9] = Toxicity in mouse B16-4A5 cells assessed as inhibition of cell proliferation at 10 uM in presence of 1 mM theophylline after 72 hrs by WST8 dye reduction assay; assay type: cell-based
[10] = Toxicity in mouse B16-4A5 cells assessed as inhibition of cell proliferation at 1 uM in presence of 1 mM theophylline after 72 hrs by WST8 dye reduction assay; assay type: cell-based
[11] = Toxicity in mouse B16-4A5 cells assessed as inhibition of cell proliferation at 3 uM in presence of 1 mM theophylline after 72 hrs by WST8 dye reduction assay; assay type: cell-based

| Compound | inhibition at 10 µM (cells [1]) | inhibition at 72 h, 30 µM [2] | inhibition at 1 µM (cells [3]) | inhibition at 3 µM (cells [4]) | inhibition at 30 µM (cells [5]) | inhibition [6] | inhibition [7] | inhibition [8] | inhibition at 72 h, 10 µM [9] | inhibition at 72 h, 1 µM [10] | inhibition at 72 h, 3 µM [11] |
| --- | --- | --- | --- | --- | --- | --- | --- | --- | --- | --- | --- |
| COc1cc([C@@H]2Oc3c(O)cc(C=O)cc3[C@H]2CO)ccc1O [HIEROCHIN C] | 27.6% | < 8.8% | -1% | 6.6% | 44.6% |  |  |  |  |  |  |
| COc1cc([C@@H](O)[C@@H](CO)c2ccc(O)c(OC)c2)ccc1O (relative stereo) | 21.3% | < 8.8% | 14.9% | 20.8% | 27.3% |  |  |  |  |  |  |
| O=C(O)c1ccc(O)c(O)c1 [PROTOCATECHUIC ACID] |  | < 8.8% |  |  | < 15.4% |  |  |  |  |  |  |
| COc1ccc(C(=O)O)cc1 [p-ANISIC ACID] |  | < 8.8% |  |  | < 15.4% |  |  |  |  |  |  |
| COc1cc(/C=C/C(=O)O)ccc1O [FERULATE] |  | < 8.8% |  |  | < 15.4% |  |  |  |  |  |  |
| COc1cc(C(=O)C(O)CO)ccc1O (single isomer, unassigned; (+)) | 24% | < 8.8% | 16.5% | 18.1% | 25.8% |  |  |  |  |  |  |
| COc1cc(C(=O)CO)ccc1O |  | < 8.8% |  |  | < 15.4% |  |  |  |  |  |  |
| O=C1C[C@@H](c2ccc(O)cc2)Oc2cc3oc4cc(O)c(O)cc4c3c(O)c21 [ANASTATIN A] | 35.9% | < 8.8% | 7.1% | 14.9% | 65.1% | inactive | 6.4% | 6.7% |  |  |  |
| COc1ccc([C@@H]2Oc3c(O)cc(/C=C/C=O)cc3[C@H]2CO)cc1OC | 33.6% | < 8.8% | 10.7% | 8.4% | 76.8% | inactive |  |  |  |  |  |
| COc1cc([C@H](O)[C@@H](CO)c2ccc(O)c(OC)c2)ccc1O (relative stereo) |  | < 8.8% |  |  | < 15.4% |  |  |  |  |  |  |
| C[C@@H]1O[C@@H](OC[C@H]2O[C@@H](Oc3c(-c4ccc(O)c(O)c4)oc4cc(O)cc(O)c4c3=O)[C@H](O)[C@@H](O)[C@@H]2O)[C@H](O)[C@H](O)[C@H]1O [RUTIN] | 4.3% | < 8.8% | 4.5% | 3.1% | 5.2% |  |  |  |  |  |  |
| COc1cc(/C=C/C=O)ccc1O [CONIFERYL ALDEHYDE] | 14% | 11.5% | 10.3% | 11.6% | 39.1% |  | 1.6% | 4.2% | -0.5% | -4.2% | -3.2% |
| O=C1C[C@@H](c2ccc(O)cc2)Oc2c1c(O)cc1oc3cc(O)c(O)cc3c21 [ANASTATIN B] | 19.5% | < 8.8% | -1.1% | 10.1% | 40.3% |  |  |  |  |  |  |
| COc1cc(C=O)ccc1O [VANILLIN] |  | < 8.8% |  |  | < 15.4% |  |  |  |  |  |  |
| O=C(O)c1ccc(O)cc1 [PARABEN] |  | < 8.8% |  |  | < 15.4% |  |  |  |  |  |  |
| COc1cc(C(O)C(CO)Oc2ccc(/C=C/CO)cc2OC)ccc1O (stereo not drawn) | 24.5% | < 8.8% | 8.8% | 11.7% | 52.9% | inactive |  |  |  |  |  |
| COc1cc([C@H]2Oc3cc(O)cc(O)c3C(=O)[C@@H]2O)ccc1O | 10.6% | < 8.8% | 9.8% | 8% | 16.2% |  |  |  |  |  |  |
| COc1cc(C(C)=O)ccc1O [APOCYNIN] | 18.9% | < 8.8% | 16.8% | 17.5% | 20.2% |  |  |  |  |  |  |
| O=C1C[C@@H](c2ccc(O)cc2)Oc2cc(O)cc(O)c21 [NARINGENIN] | 22.5% | < 8.8% | 14.4% | 13.9% | 16.9% |  |  |  |  |  |  |
| COc1cc(C(=O)CCO)ccc1O |  | < 8.8% |  |  | < 15.4% |  |  |  |  |  |  |
| O=Cc1ccc(O)cc1 [4-HYDROXYBENZALDEHYDE] |  | 17.6% |  |  | < 15.4% |  |  |  | -21% | -8.4% | -13.6% |
| COc1cc([C@@H]2Oc3c(O)cc([C@H]4Oc5cc(O)cc(O)c5C(=O)[C@@H]4O)cc3[C@H]2CO)ccc1O [SILICRISTIN A] | 3.8% | < 8.8% | 4.1% | 1.3% | 17.4% |  |  |  |  |  |  |
| O=C1c2c(O)cc(O)cc2O[C@H](c2ccc(O)cc2)[C@H]1O [DIHYDROKAEMPFEROL] | -5.2% | < 8.8% | 6% | 14.4% | 7% |  |  |  |  |  |  |
| O=C1c2c(O)cc(O)cc2O[C@@H](c2ccc(O)c(O)c2)[C@H]1O [(+)-EPITAXIFOLIN] | 6.9% | < 8.8% | 3.5% | 6.8% | 13.7% |  |  |  |  |  |  |
| COC/C=C/c1cc(O)c2c(c1)[C@@H](CO)[C@H](c1ccc(O)c(OC)c1)O2 [HIEROCHIN A] | 32.5% | < 8.8% | 1.9% | 8% | 51.8% | inactive |  |  |  |  |  |
| O=C1c2c(O)cc(O)cc2O[C@H](c2ccc(O)c(O)c2)[C@H]1O [(+)-TAXIFOLIN] | 6.7% | < 8.8% | 3.5% | 3.1% | 21.7% |  |  |  |  |  |  |
| O=c1c(O)c(-c2ccc(O)cc2)oc2cc(O)cc(O)c12 [KAEMPFEROL] | 18.6% | 16.3% | -0.6% | 7.9% | 58.1% | inactive |  |  | 13% | 3% | 10.2% |
| COc1cc(C[C@H]2CO[C@H](c3ccc(O)c(OC)c3)[C@H]2CO)ccc1O [LARICIRESINOL] |  | < 8.8% |  |  | < 15.4% |  |  |  |  |  |  |
| COc1cc(C(=O)[C@H](CO)c2ccc(O)c(OC)c2)ccc1O [(-)-EVOFOLIN B] | 16.4% | < 8.8% | 18.2% | 15% | 23.5% |  |  |  |  |  |  |
| COc1cc([C@H]2Oc3c(O)cc([C@H]4Oc5cc(O)cc(O)c5C(=O)[C@@H]4O)cc3[C@@H]2CO)ccc1O [SILICRISTIN B] | 1.6% | < 8.8% | 4.2% | -1.3% | 1.2% |  |  |  |  |  |  |
